Reference: ChEMBL document CHEMBL1201862, “PubChem BioAssay data set” (2004)
Calls of active or inactive are those of the source.

Legend:
cells = format: functional
[1] = THP-1 cell cytotoxicity, dose response, cytotoxicity control for non-replicating M. tuberculosis project (AID 489025); format: functional
[2] = microbe, parasite or virus in culture; format: functional; conditions: Mycobacterium tuberculosis
Cytochrome P450 3A4 = Cytochrome P450 3A4 (Homo sapiens, UniProt P08684);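 also: CYP3A4 tested as one member of a cytochrome P450 panel screen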
Chain of Cytochrome P450 3A4 (P08684 whole entry): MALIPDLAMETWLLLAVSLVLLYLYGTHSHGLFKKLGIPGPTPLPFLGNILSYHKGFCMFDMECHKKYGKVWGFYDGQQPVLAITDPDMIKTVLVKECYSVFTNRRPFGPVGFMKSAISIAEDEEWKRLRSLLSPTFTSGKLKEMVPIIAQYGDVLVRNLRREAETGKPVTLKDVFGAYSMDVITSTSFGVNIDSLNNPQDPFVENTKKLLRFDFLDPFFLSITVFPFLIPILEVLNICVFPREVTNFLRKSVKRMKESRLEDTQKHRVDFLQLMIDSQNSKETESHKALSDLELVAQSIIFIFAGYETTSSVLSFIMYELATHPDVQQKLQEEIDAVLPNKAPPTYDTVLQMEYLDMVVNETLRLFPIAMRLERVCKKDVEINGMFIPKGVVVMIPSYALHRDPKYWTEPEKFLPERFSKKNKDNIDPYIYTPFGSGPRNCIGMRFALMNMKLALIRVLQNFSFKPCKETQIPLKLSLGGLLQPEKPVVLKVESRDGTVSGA

Cytochrome P450 2C9 = Cytochrome P450 2C9 (Homo sapiens, UniProt P11712)
Chain of Cytochrome P450 2C9 (P11712 whole entry): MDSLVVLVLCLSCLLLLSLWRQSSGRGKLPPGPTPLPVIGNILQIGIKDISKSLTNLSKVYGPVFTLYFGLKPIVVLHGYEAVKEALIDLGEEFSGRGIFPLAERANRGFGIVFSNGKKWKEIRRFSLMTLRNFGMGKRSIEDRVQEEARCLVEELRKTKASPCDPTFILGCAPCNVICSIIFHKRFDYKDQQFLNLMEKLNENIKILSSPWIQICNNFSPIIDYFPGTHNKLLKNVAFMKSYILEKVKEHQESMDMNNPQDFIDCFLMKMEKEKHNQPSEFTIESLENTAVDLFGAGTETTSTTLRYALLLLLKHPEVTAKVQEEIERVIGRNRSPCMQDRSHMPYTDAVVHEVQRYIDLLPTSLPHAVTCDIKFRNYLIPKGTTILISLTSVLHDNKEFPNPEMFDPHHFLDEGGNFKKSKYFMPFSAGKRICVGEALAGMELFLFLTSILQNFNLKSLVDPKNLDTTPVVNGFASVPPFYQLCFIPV

[3] = molecular target: T1, Corticotropin-releasing factor receptor 2/Corticotropin-releasing factor-binding protein (Homo sapiens, UniProt P24387+Q13324); experiment: activators of CRF receptor 2 with binding protein – uHTS hits, confirmation (AID 602473); format: functional; conditions: read-out: EC50_Mean
T1 sequence (Q13324 whole entry): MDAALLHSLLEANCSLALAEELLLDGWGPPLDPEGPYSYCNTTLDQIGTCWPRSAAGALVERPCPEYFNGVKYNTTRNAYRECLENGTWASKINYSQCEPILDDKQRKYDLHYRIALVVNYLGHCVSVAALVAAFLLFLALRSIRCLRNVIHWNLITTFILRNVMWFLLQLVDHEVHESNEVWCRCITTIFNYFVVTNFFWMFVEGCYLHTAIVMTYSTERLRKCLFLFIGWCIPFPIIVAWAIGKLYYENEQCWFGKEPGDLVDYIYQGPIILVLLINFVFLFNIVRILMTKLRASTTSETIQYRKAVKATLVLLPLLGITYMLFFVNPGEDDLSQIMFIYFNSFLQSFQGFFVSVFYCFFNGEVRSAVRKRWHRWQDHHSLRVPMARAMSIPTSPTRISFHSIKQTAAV
T1 sequence (P24387 whole entry): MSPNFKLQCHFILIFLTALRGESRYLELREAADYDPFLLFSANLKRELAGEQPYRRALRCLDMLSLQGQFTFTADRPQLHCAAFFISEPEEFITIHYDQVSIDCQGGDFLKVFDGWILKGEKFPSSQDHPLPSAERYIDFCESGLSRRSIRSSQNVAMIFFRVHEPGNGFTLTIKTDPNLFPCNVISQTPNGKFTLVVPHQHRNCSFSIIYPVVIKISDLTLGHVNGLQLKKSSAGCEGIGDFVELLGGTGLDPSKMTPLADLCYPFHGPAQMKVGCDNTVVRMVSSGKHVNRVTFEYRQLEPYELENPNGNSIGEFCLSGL

[4] = test system: Streptococcus sp. 'group A'; experiment: growth inhibition of control SK(-) GAS strain, dose response, counter-screen for streptokinase expression inhibitor project, luminescence, kanamycin, BacTiterGlo, confirmation (AID 1900); format: functional, organism-based
[5] = Luminescence Cell-Based Dose Retest to Confirm Inhibitors of Cancer Stem Cells. [Related pubchem assays (depositor defined):AID2717, AID2721]; format: functional; conditions: Homo sapiens
Streptococcus = experiment: Group A Streptococcus viability loss, dose response, counter-screen for streptokinase expression inhibitor project, luminescence, BacTiterGlo (AID 1915); format: functional, organism-based;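 also: potency for reduction of bacterial viability or growth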
Cytochrome P450 2D6 = Cytochrome P450 2D6 (Homo sapiens, UniProt P10635);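 also: CYP2D6 member of a cytochrome P450 panel assay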
Chain of Cytochrome P450 2D6 (P10635 whole entry): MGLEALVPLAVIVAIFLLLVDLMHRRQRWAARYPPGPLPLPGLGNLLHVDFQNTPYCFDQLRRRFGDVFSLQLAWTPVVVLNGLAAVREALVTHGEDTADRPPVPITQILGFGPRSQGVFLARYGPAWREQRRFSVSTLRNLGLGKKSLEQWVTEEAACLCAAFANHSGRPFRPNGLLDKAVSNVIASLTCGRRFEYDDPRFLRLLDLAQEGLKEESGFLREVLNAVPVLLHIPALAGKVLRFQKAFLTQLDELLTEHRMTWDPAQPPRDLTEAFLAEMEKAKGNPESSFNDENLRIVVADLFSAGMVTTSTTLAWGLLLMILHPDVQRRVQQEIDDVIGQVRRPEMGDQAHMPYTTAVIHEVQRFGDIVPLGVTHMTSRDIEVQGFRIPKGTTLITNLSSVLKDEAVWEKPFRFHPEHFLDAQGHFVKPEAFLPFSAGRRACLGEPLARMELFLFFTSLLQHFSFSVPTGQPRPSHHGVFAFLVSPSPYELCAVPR

Cytochrome P450 2C19 = Cytochrome P450 2C19 (Homo sapiens, UniProt P33261); experiment: Cytochrome panel assay with activity outcomes. Panel member name: p450-cyp2c19 Compounds with AC50 equal or less than 10 uM are considered active; format: functional
Chain of Cytochrome P450 2C19 (P33261 whole entry): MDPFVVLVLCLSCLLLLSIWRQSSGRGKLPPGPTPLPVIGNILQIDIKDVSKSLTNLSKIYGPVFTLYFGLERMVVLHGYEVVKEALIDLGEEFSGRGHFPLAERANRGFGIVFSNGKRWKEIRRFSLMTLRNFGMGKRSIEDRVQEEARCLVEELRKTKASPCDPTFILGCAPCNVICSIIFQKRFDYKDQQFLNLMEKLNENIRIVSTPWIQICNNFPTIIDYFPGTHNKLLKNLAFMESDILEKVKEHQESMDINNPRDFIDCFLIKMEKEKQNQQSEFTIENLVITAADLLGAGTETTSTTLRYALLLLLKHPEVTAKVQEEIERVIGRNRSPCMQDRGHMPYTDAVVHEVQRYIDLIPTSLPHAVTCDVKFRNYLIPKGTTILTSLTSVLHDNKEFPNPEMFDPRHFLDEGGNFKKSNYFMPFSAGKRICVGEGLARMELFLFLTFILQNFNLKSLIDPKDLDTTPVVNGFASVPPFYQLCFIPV

Cytochrome P450 1A2 = molecular target: T2, Cytochrome P450 1A2 (Homo sapiens, UniProt P05177);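 also: PubChem cytochrome P450 panel assay, CYP1A2 panel member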
T2 sequence (P05177 whole entry): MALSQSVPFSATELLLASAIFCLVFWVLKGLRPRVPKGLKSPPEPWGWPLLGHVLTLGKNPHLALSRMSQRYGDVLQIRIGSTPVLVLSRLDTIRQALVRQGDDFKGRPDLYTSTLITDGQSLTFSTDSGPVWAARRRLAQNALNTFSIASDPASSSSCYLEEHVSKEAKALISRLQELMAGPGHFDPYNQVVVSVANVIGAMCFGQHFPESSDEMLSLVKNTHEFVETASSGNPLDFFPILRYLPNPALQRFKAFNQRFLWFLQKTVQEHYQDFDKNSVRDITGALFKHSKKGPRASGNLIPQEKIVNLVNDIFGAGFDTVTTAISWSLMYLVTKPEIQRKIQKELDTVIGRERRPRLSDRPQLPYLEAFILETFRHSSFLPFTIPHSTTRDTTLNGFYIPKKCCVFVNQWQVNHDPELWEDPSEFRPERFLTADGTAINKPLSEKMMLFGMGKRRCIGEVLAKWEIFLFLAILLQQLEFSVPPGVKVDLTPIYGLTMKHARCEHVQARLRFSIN

SUMO-activating enzyme = SUMO-activating enzyme (Homo sapiens, UniProt Q9UBT2); experiment: SUMOylation inhibitor hit validation, confirmation, SUMOylation inhibitor project, biochemical, AlphaScreen (AID 2018); format: functional
Chain of SUMO-activating enzyme (Q9UBE0 whole entry): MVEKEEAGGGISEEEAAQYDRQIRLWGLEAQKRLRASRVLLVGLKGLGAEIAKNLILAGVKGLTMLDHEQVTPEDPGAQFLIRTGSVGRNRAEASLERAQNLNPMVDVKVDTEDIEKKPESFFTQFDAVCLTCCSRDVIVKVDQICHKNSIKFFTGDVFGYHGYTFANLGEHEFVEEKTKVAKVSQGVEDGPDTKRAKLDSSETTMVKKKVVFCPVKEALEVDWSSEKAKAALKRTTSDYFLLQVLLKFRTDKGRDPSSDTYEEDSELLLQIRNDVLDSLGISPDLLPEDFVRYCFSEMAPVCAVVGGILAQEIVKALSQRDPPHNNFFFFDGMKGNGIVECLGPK
Chain of SUMO-activating enzyme (Q9UBT2 whole entry): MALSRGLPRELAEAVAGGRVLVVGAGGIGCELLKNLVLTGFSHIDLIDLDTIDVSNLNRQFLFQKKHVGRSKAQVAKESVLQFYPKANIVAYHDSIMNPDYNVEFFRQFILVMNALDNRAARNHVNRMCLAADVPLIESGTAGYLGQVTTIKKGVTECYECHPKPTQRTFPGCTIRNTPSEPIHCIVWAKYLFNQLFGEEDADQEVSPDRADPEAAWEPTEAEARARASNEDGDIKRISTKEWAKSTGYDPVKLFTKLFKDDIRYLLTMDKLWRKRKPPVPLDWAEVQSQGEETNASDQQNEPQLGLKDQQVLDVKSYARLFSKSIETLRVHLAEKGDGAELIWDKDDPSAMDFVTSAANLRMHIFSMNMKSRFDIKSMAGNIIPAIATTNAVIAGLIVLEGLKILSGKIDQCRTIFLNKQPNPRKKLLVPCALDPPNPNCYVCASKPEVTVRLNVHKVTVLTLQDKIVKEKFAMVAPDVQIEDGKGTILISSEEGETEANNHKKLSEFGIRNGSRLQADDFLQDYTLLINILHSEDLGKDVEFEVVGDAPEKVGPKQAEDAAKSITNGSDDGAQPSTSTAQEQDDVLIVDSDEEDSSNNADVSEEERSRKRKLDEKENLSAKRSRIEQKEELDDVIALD

[6] = molecular target: T3, Ubiquitin-conjugating enzyme E2 N (Homo sapiens, UniProt P61088); format: functional
T3 sequence (P61088 whole entry): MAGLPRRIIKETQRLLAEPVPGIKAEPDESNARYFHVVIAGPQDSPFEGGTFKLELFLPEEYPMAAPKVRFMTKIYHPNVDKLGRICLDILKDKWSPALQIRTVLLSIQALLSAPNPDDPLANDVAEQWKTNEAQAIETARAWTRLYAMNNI

Bcl-2-related protein A1 = molecular target: T4, Bcl-2-related protein A1 (Mus musculus, UniProt Q07440); format: functional;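 also: confirmatory dose–response counterscreen on Bfl-1, used to check hits from a UBC13 polyubiquitin inhibitor campaign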
T4 sequence (Q07440 whole entry): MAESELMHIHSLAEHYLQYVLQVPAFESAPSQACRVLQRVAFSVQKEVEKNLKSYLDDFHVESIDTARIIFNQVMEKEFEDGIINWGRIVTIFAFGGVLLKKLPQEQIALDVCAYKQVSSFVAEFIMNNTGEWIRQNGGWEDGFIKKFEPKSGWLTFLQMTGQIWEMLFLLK

[7] = molecular target: T3, Ubiquitin-conjugating enzyme E2 N; format: functional; remark: listed apart in the source
[8] = molecular target: T5, Heat shock factor protein 1 (Mus musculus, UniProt P38532); experiment: inhibition of MG132-induced HSE-luciferase signal, confirmation, cell-based, NIH3T3, luminescence, dose retest (AID 2382); format: functional;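 also: NIH3T3 fibroblasts with HSF1-driven luciferase reporter stressed by proteasome inhibitor MG132; luminescence from HSF1-driven luciferase expression after 8 hours of MG132 stress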
T5 sequence (P38532 whole entry): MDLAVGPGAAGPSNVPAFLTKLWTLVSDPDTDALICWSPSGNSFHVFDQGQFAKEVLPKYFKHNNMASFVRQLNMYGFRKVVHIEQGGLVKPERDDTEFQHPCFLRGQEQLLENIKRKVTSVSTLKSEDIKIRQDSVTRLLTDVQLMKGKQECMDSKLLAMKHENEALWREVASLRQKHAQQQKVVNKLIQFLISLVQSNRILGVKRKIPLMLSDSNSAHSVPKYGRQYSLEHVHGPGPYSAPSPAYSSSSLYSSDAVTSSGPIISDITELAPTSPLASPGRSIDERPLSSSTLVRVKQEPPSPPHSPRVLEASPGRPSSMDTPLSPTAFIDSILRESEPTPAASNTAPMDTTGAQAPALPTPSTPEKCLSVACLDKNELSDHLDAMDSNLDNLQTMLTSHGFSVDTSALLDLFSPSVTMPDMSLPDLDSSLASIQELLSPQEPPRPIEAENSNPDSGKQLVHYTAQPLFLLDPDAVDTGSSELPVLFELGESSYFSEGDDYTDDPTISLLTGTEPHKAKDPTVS

[9] = cytotoxicity in HEK-293T cells, dose response, cytotoxicity control for BCR NF-kB inhibitor project, luminescence, B-cell screen hits (AID 489021); format: functional, cell-based;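 also: HEK-293T cells carrying an NF-kB luciferase reporter; cells exposed to compound for about 14 hours before viability readout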
Nonstructural protein 1 = Nonstructural protein 1 (Influenza A virus, UniProt Q194T2); format: functional, Influenza A virus (A/California/07/2009(H1N1))
Chain of Nonstructural protein 1 (Q194T2 whole entry): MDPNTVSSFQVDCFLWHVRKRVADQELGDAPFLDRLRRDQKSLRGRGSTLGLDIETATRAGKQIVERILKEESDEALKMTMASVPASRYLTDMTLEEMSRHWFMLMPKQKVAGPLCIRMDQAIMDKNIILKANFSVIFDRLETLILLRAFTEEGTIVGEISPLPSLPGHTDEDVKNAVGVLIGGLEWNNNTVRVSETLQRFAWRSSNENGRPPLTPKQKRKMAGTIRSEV

[10] = molecular target: T6, Short transient receptor potential channel 4 (Mus musculus, UniProt Q9QUQ5); experiment: mouse TRPC4 channel activators, dose response, cell-based, HEK293 TRPC4/mu-opioid, Fluo-4 calcium (AID 434937); format: functional
T6 sequence (Q9QUQ5 whole entry): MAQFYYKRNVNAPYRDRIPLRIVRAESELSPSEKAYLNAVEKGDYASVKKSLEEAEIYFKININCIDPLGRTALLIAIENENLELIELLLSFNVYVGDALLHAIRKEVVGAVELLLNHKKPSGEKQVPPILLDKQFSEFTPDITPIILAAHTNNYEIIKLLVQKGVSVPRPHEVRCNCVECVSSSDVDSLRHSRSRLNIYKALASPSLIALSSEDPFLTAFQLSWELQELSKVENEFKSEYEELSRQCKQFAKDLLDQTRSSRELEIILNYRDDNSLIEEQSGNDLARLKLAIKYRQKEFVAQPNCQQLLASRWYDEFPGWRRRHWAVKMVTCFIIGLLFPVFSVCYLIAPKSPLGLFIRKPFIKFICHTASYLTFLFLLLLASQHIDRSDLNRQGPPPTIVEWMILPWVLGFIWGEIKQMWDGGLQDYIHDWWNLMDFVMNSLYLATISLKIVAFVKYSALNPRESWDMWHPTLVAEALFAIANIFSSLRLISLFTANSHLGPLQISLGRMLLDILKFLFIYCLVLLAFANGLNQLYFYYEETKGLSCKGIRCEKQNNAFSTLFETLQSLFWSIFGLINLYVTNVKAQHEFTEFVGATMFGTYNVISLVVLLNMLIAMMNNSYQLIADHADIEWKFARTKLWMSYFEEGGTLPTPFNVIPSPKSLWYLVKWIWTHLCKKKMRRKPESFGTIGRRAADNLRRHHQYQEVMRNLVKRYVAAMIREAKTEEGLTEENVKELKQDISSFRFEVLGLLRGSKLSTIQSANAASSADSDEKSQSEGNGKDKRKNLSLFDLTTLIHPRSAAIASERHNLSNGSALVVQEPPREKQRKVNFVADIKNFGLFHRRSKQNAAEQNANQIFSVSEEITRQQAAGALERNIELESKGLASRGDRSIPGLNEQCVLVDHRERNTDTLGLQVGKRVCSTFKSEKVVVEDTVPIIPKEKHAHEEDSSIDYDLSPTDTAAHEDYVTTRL

[11] = control 3'UTR Renilla luciferase suppression, dose response, counter-screen for Shn3 inhibitor project, cell-based, Clone20-Shn3RL, cherry-picked (AID 624133); format: functional
[12] = Shn3 3'UTR reporter inhibitors, dose response, cell-based, Clone20 osteoblasts, firefly luciferase, cherry-picked (AID 624132); format: functional;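 also: firefly luciferase luminescence from reporter carrying the Shn3 3'UTR in osteoblasts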
[13] = HepG2 cell cytotoxicity, dose response, cytotoxicity control for Shn3 inhibitor project, CellTiter-Glo, cherry-picked (AID 624134); format: functional, cell-based

SMILES: CC(C)N1C(=O)NC(=O)C2(Cc3cc([N+](=O)[O-])ccc3N(C)C2c2ccccc2)C1=O (stereo not given)
- IC50 (cells): 27.3 µM (active)
- CC50 [1]: > 40 µM (active)
- CC50 [2]: > 40 µM (active)

SMILES: CNc1oc(-c2cccs2)nc1C#N
- AC50 (Cytochrome P450 3A4): 28.2 µM (inconclusive)
- AC50 (Cytochrome P450 2C9): inconclusive

SMILES: O=C(Nc1nnc(-c2ccc(Cl)cc2)o1)c1nc2ccccc2s1
- EC50 [3]: 2.26 µM (active)
- EC50 [4]: 0.289 µM (active)
- IC50 (cells): 1.5 µM (active)
- AC50 [5]: 3.56 µM (active)
- EC50 (Streptococcus): 0.936 µM (active)
- CC50 [1]: > 40 µM (active)

SMILES: CSc1ccc(S(=O)(=O)Nc2ccc3c4c(cccc24)CC3)cc1
- AC50 (Cytochrome P450 2D6): 14.1 µM (inconclusive)
- AC50 (Cytochrome P450 2C9): inconclusive

SMILES: Cc1ccc(NN=C2C(=O)NC(=O)NC2=O)c([N+](=O)[O-])c1
- AC50 (Cytochrome P450 2C19): inconclusive
- AC50 (Cytochrome P450 2C9): inconclusive
- AC50 (Cytochrome P450 1A2): 17.8 µM (inconclusive)

SMILES: NC(=O)CC(NC(=O)Cc1cccc2ccccc12)c1ccc(NC2CCCCCC2)c([N+](=O)[O-])c1 (stereo not given)
- IC50 (SUMO-activating enzyme): > 100 µM (inactive)

SMILES: CCc1cccc2c(C(=O)C(NC(C)CC)c3ccccc3)c[nH]c12 (stereo not given)
- IC50 [6]: 9.25 µM (active)
- IC50 (Bcl-2-related protein A1): > 20 µM (inactive)
- IC50 [7]: 16.6 µM (active)

SMILES: COc1cccc(OCC(=O)NN=C2c3ccccc3-c3ccccc32)c1
- AC50 (Cytochrome P450 2C9): inconclusive

SMILES: Cc1nn(CC(=O)NCCCN2CCC(Cc3ccccc3)CC2)c(=O)c2cc(-c3ccccc3)nn12
- IC50 [6]: 4.59 µM (active)
- IC50 (Bcl-2-related protein A1): > 20 µM (inactive)
- EC50 [8]: > 195 µM (not active)
- IC50 [7]: 11.4 µM (active)

SMILES: Cc1cc(OC(=O)c2ccccc2Cl)cc(=O)n1C
- IC50 [9]: > 80 µM (inactive)

SMILES: O=C(Nc1ccc(C(=O)NCCCN2CCN(c3ccc(F)cc3)CC2)cc1)C1=CSCCO1
- IC50 [6]: 10.3 µM (active)
- IC50 (Bcl-2-related protein A1): > 20 µM (inactive)
- IC50 [7]: 12.5 µM (active)

SMILES: Cc1ccc(C(=O)N2CCCC(c3ccc(Cl)cc3)=N2)cc1
- IC50 [9]: > 80 µM (inactive)

SMILES: COc1ccc(C(CCNCc2ccc(N(C)C)cc2)c2ccccc2OC)cc1 (stereo not given)
- IC50 (Nonstructural protein 1): 20.2 µM (active)
- EC50 [10]: 10.6 µM (active)

SMILES: O=C(Nc1nnc(-c2ccccc2SCc2ccccc2)s1)Nc1ccccc1F
- IC50 (SUMO-activating enzyme): 46.5 µM (active)

SMILES: CCn1c(=O)cc(OCC(=O)Nc2ccc(OC)c(OC)c2)c2ccccc21
- IC50 [9]: > 80 µM (inactive)

SMILES: CCCS(=O)(=O)c1ncc(Cl)c(C(=O)Nc2ccc(S(=O)(=O)Nc3ncccn3)cc2)n1
- IC50 [6]: > 20 µM (inactive)
- IC50 (Bcl-2-related protein A1): > 20 µM (inactive)
- IC50 [7]: 14 µM (active)

SMILES: Cc1cccc(Oc2coc3cc(OC(=O)c4cccs4)ccc3c2=O)c1
- AC50 (Cytochrome P450 2C9): inconclusive
- AC50 (Cytochrome P450 1A2): 14.1 µM (inconclusive)

SMILES: NNc1nccc(Nc2ccccc2C(=O)O)n1
- IC50 (Nonstructural protein 1): 8.21 µM (active)

SMILES: Cc1ccc(S(=O)(=O)N2CCCCC2CCNC(=O)C(=O)NCc2ccncc2)cc1 (stereo not given)
- IC50 [9]: > 80 µM (inactive)

SMILES: Oc1c(CN2CCCCC2)ccc2cccnc12
- IC50 (Nonstructural protein 1): 2.05 µM (active)
- AC50 [11]: 3.77 µM (active)
- AC50 [12]: 2.11 µM (active)
- AC50 [13]: 52.3 µM (active)
